The source of these data is patent US8268848B2, “Cyclopropane compound” (Eisai R&D Management Co., Ltd., priority 2010, dated 2012).

pIC50, pKi: −log10 of the molar value. Where two headings read alike, the source gives them in different places.

The subject of one assay is mice (C57BL/6NCrlCrLj). Description: Sleep experiment (EEG/EMG) in mice. Type of assay: in vivo. As for the experimental part:
As a method for measuring the influence of the present compound on sleep time, electroencephalogram (EEG) and electromyogram (EMG) measurements were carried out in mice (C57BL/6NCrlCrLj).
In order to measure brain waves and muscle signals, EEG and EMG electrode implantation was performed on individual mice, and the mice were then housed in a state in which they could freely move and habituate in individual recording cages for 1 week or longer. Thereafter, amplified EEG and EMG signals were digitally recorded.
Mice received either oral administration of vehicle or test compound in vehicle, after which sleep/wake behavior of mice was recorded for 3 hours.
For sleep analysis, automatic analysis software from Kissei Comtec Co., Ltd. was used to analyze EEG frequency and EMG activity signals in detail and to determine sleep and wake states. Thereafter, accumulated sleeping time over 3 hours was calculated.
The effect of the compound to increase sleep time was evaluated as the difference between sleeping time on the vehicle-administration day and the sleep time on the subsequent drug-administration day.
The minimum effective dose (MED; mg/kg) was obtained from accumulated sleep time of mice with three hours after the administration.

The target of assay [1] is T1, OX1 (Homo sapiens, UniProt O43613).
T1 sequence (O43613 1-425): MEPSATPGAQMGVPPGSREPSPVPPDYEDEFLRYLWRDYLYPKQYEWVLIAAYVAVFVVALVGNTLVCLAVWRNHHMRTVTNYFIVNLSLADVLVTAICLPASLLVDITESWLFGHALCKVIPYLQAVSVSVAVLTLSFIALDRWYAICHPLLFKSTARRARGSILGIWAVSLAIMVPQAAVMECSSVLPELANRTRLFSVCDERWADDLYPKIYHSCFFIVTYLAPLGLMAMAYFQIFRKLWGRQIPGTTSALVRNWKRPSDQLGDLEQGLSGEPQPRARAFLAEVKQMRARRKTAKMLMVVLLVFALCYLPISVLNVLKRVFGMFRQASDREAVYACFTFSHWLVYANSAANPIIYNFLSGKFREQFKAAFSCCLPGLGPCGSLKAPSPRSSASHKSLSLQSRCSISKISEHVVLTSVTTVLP
Description: Measurement of orexin receptor-binding ability ([125I]-OX-A, cell membranes, OX1). Also on record: expressed in transfected cells; host or cells: CHO cells (membrane preparation).

Assay [2] addresses T2, OX2 (Homo sapiens, UniProt O43614).
T2 sequence (O43614 1-444): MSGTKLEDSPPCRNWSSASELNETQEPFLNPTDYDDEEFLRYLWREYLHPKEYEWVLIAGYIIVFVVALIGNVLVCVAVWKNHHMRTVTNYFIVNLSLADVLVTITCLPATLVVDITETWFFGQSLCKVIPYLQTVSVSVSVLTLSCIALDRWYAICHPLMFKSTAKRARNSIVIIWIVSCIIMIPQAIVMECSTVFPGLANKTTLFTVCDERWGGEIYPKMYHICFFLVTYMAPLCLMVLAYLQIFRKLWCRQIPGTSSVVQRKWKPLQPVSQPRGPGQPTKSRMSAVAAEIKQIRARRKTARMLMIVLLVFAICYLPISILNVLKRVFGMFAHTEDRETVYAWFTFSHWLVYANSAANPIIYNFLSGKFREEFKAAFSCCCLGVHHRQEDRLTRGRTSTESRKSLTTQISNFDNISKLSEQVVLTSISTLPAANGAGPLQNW
Description: Measurement of orexin receptor-binding ability ([125I]-OX-A, cell membranes, OX2). The settings on record: membranes of recombinant CHO cells expressing OX2, 0.2 nM [125I]-OX-A; for IC50: OX2 (IC50) nM; for pIC50: read-out: OX2 (IC50). Also on record: expressed in transfected cells; host or cells: CHO cells (membrane preparation).

In assay [3] the target is T1, OX1. The assay is described as follows: Measurement of antagonism (PLAP assay), OX1. Type of assay: cell-based. The arrangement: expressed in transfected cells; host or cells: HEK-293 cells, expression vector pBabeCLIH. As for the experimental part:
(§1) 2. Measurement of Antagonism (PLAP Assay)
(§2) The antagonistic function of the compound of the present invention to prevent the activation of OX2 and OX1 by orexin-A (OX-A), which is a natural peptide agonist, was measured using a cell-based reporter assay. […] The cells were plated at a density of 10,000 cells/well onto a non-coated 96-well plate in Dulbecco's modified Eagle medium (Sigma Cat No. D6046:10% v/v heat-inactivated fetal bovine serum was contained). The cells were cultured at 37° C. overnight, so that they could adhere to the plate. On the following day, cells were incubated with a compound of the present invention dissolved in Dulbecco's modified Eagle medium (Sigma Cat No. A8806:0.1% w/v bovine serum albumin was contained), and added to the cell plate to reach a final concentration of 0.1% dimethyl sulfoxide.
(§3) The thus obtained mixture was incubated at room temperature for 1 hour. Thereafter, human OX-A and forskolin were dissolved in the same medium as described above, which contained fetal bovine serum albumin, and the medium was then added to the cells, resulting in a final concentration of 300 nM forskolin. Subsequently, the cells were cultured at 37° C. for approximately 18 to 24 hours.

Assay [4] addresses T2, OX2. Description: Measurement of antagonism (PLAP assay), OX2. The class given is cell-based. The arrangement: expressed in transfected cells; host or cells: HEK-293 cells, expression vector pBabeCLIH. On the procedure: as §1, §2, §3
Setting [5] is: mice, oral administration, difference to vehicle day, 3 hours.
[6] abbreviates: HEK-293 cells expressing human OX1, 1 nM human OX-A, IC50 converted by Cheng-Prusoff equation, read-out: OX1 (Ki).
[7] abbreviates: HEK-293 cells expressing human OX2, 1 nM human OX-A, IC50 converted by Cheng-Prusoff equation, read-out: OX2 (Ki).
The mark [8] stands for this setting: membranes of recombinant CHO cells expressing OX1, 0.2 nM [125I]-OX-A, read-out: OX1 (IC50).

A word on the pIC50: it is −log10 of the IC50, conventionally taken in molar units. A word on the IC50: it is the concentration needed to halve the response being measured. By pKi is commonly meant the negative decadic logarithm of the Ki, by convention in mol/L.

On to `Cc1ncc(OC[C@@]2(c3ccccc3)C[C@H]2C(=O)Nc2cc(C)c(F)cn2)c(C)n1` [Example 51, (1R,2S)-2-{[(2,4-dimethylpyrimidin-5-yl)oxy]methyl}-N-(5-fluoro-4-methylpyridin-2-yl)-2-phenylcyclopropanecarboxamide], for which the “Sleep extended time 10 mg/kg (min/3 hrs)” value in the assay on mice (C57BL/6NCrlCrLj) (setting [5]) is 23.6 min/3 hrs. Also, the “minimum effective dose (MED)” value in the assay with mice (C57BL/6NCrlCrLj) (mice, oral, doses 0.3 to 100 mg/kg, accumulated sleep time within three hours after administration) was 3 mg/kg. The compound further had a pIC50 at OX1 [1] of 8.19. The IC50 at OX2 [2] was 3.9 nM. For the same compound, the pKi is 7.54 on OX1 [3] and 8.92 on OX2 [4].

Regarding `Cc1ncc(OC[C@@]2(c3cccc(F)c3)C[C@H]2C(=O)Nc2cc(C)c(F)cn2)c(C)n1` [Example 82, (1R,2S)-2-{[(2,4-dimethylpyrimidin-5-yl)oxy]methyl}-N-(5-fluoro-4-methylpyridin-2-yl)-2-(3-fluorophenyl)cyclopropanecarboxamide], the “Sleep extended time 10 mg/kg (min/3 hrs)” value with mice (C57BL/6NCrlCrLj) (setting [5]) stood at 33.5 min/3 hrs. The compound also had a pIC50 at OX1 [1] of 8.62. In addition, on OX2 [2], the IC50 was found to be 3.7 nM. For the same compound, the negative-log Ki (pKi) was 9.02 on OX1 [3] (setting [6]) and 10.07 at OX2 [4].

In the case of `Cc1ncc(OC[C@@]2(c3ccc(F)cc3)C[C@H]2C(=O)Nc2ccc(F)cn2)c(C)n1` [Example 100, (1R,2S)-2-{[(2,4-dimethylpyrimidin-5-yl)oxy]methyl}-2-(4-fluorophenyl)-N-(5-fluoropyridin-2-yl)cyclopropanecarboxamide], the “Sleep extended time 10 mg/kg (min/3 hrs)” value in the assay on mice (C57BL/6NCrlCrLj) (setting [5]) was 23.8 min/3 hrs. Besides, the pIC50 on OX1 [1] was 7.40. In addition, the IC50 on OX2 [2] is 7.6 nM. Also, the pKi is 6.83 at OX1 [3] (setting [6]) and 8.03 on OX2 [4] (setting [7]).

Consider `CCc1nc(C)ncc1OC[C@@]1(c2ccccc2)C[C@H]1C(=O)Nc1ccc(F)cn1` [Example 119, (1R,2S)-2-{[(4-ethyl-2-methylpyrimidin-5-yl)oxy]methyl}-N-(5-fluoropyridin-2-yl)-2-phenylcyclopropanecarboxamide], for which, in the assay on mice (C57BL/6NCrlCrLj) (setting [5]), the “Sleep extended time 10 mg/kg (min/3 hrs)” value worked out at 16.0 min/3 hrs. Also, the negative-log IC50 (pIC50) at OX1 [1] was 7.68. For the same compound, the IC50 on OX2 [2] came out at 5.2 nM. The pKi at OX1 [3] (setting [6]) is 7.68; at OX2 [4] (setting [7]), 9.22.

As for `CCc1nc(C)ncc1OC[C@@]1(c2ccccc2)C[C@H]1C(=O)Nc1ccc(C#N)cn1` [Example 120, (1R,2S)-N-(5-cyanopyridin-2-yl)-2-{[(4-ethyl-2-methylpyrimidin-5-yl)oxy]methyl}-2-phenylcyclopropanecarboxamide], the “Sleep extended time 10 mg/kg (min/3 hrs)” value in the assay with mice (C57BL/6NCrlCrLj) (po, 3 h) is 11.5 min/3 hrs. Further, the pIC50 was 6.91 on OX1 [1] (setting [8]) and 8.15 at OX2 [2]. Besides, the pKi at OX1 [3] (setting [6]) is 6.56; on OX2 [4] (setting [7]), 8.24.

In the case of `CCc1nc(C)ncc1OC[C@@]1(c2ccccc2)C[C@H]1C(=O)Nc1ccc(Cl)cn1` [Example 121, (1R,2S)-N-(5-chloropyridin-2-yl)-2-{[(4-ethyl-2-methylpyrimidin-5-yl)oxy]methyl}-2-phenylcyclopropanecarboxamide], the “Sleep extended time 10 mg/kg (min/3 hrs)” value in the assay with mice (C57BL/6NCrlCrLj) (po, 3 h) was determined as 26.7 min/3 hrs. Also, the pIC50 at OX1 [1] (setting [8]) was 8.00; at OX2 [2], 8.51. Moreover, the pKi on OX1 [3] (setting [6]) is 7.59; on OX2 [4] (setting [7]), 9.52.

As for `Cc1ncc(OC[C@@]2(c3cc(F)cc(F)c3)C[C@H]2C(=O)Nc2cc(C)c(F)cn2)c(C)n1` [Example 129, (1R,2S)-2-(3,5-difluorophenyl)-2-{[(2,4-dimethylpyrimidin-5-yl)oxy]methyl}-N-(5-fluoro-4-methylpyridin-2-yl)cyclopropanecarboxamide], the “Sleep extended time 10 mg/kg (min/3 hrs)” value in the assay on mice (C57BL/6NCrlCrLj) (po, 3 h) came out at 30.0 min/3 hrs. Moreover, the values for the pIC50 at OX1 [1] (setting [8]) and on OX2 [2] were 9.00 and 8.82, respectively. For the same compound, the pKi at OX1 [3] (setting [6]) was 9.01; at OX2 [4] (setting [7]), 10.22.

`Cc1ncc(OC[C@@]2(c3ccc(Cl)cc3)C[C@H]2C(=O)Nc2ccc(F)cn2)c(C)n1` [Example 161]: the “Sleep extended time 10 mg/kg (min/3 hrs)” value with mice (C57BL/6NCrlCrLj) (setting [5]) is on record as 10.0 min/3 hrs. In addition, the pIC50 at OX1 [1] is 7.30. In addition, at OX2 [2], the IC50 came to 12 nM. Moreover, the pKi at OX1 [3] (setting [6]) is 7.49; at OX2 [4] (setting [7]), 8.54.
